Results on six molecules are retold here after US4399132A, “7-Beta-[alpha-syn-methoxyimino-alpha-(2-aminothiazol-4-yl)-aceta mido]-3-[(1,2,3-thiadiazol-5-ylthio)methyl]-3-cephem-4-carboxylic acid and C1 -C6 alkyl derivatives thereof” (American Cyanamid Company, priority 1981, dated 1983).

≈ marks a conversion by molar mass, not a printed value. Like-named read-outs stand apart in the source and are kept apart here.

The subject of this assay is Staphylococcus aureus. Kind of assay: Mueller-Hinton agar dilution method (MIC). The format is cell-based. On the technique in general: In agar dilution, organisms are placed on agar that contains the substance at set levels.
Setting [1] is: beta-lactamase negative, strain SSC 79-3, Table II, read-out: Minimal Inhibitory Concentration.
The mark [2] stands for this setting: beta-lactamase negative, strain SSC 79-5, Table II, read-out: Minimal Inhibitory Concentration.
Setting [3] is: beta-lactamase negative, strain SSC 79-7, Table II, read-out: Minimal Inhibitory Concentration.
Setting [4] is: beta-lactamase negative, strain SSC 79-9, Table II, read-out: Minimal Inhibitory Concentration.
[5] abbreviates: beta-lactamase negative, strain SSC 79-10, Table II, read-out: Minimal Inhibitory Concentration.
Where [6] appears, read: beta-lactamase negative, strain SSC 79-11, Table II, read-out: Minimal Inhibitory Concentration.
Setting [7] is: beta-lactamase negative, strain SSC 79-14, Table II, read-out: Minimal Inhibitory Concentration.
Setting [8] is: beta-lactamase negative, strain SSC 79-15, Table II, read-out: Minimal Inhibitory Concentration.
Where [9] appears, read: beta-lactamase negative, strain SSC 79-17, Table II, read-out: Minimal Inhibitory Concentration.
The mark [10] stands for this setting: beta-lactamase positive, strain SSC 79-24, Table II, read-out: Minimal Inhibitory Concentration.
[11] abbreviates: beta-lactamase positive, strain SSC 79-27, Table II, read-out: Minimal Inhibitory Concentration.
The mark [12] stands for this setting: beta-lactamase positive, strain SSC 79-28, Table II, read-out: Minimal Inhibitory Concentration.
Setting [13] is: beta-lactamase positive, strain SSC 79-36, Table II, read-out: Minimal Inhibitory Concentration.
Setting [14] is: beta-lactamase positive, strain SSC 79-38, Table II, read-out: Minimal Inhibitory Concentration.
[15] abbreviates: beta-lactamase positive, strain SSC 79-39, Table II, read-out: Minimal Inhibitory Concentration.
Where [16] appears, read: beta-lactamase positive, strain SSC 79-41, Table II, read-out: Minimal Inhibitory Concentration.
Where [17] appears, read: beta-lactamase positive, strain SSC 79-44, Table II, read-out: Minimal Inhibitory Concentration.
[18] abbreviates: beta-lactamase positive, strain SSC 79-47, Table II, read-out: Minimal Inhibitory Concentration.

For `CO[C@@]1(NC(=O)Cc2cccs2)C(=O)N2C(C(=O)O)=C(COC(N)=O)CS[C@@H]21` [Compound VI, Cefoxitin], the MIC came to 2 µg/mL (≈ 4.68 µM) under setting [1]; 2 µg/mL (≈ 4.68 µM) under setting [2]; 1 µg/mL (≈ 2.34 µM) under setting [3]; 1 µg/mL (≈ 2.34 µM) under setting [4]; 1 µg/mL (≈ 2.34 µM) under setting [5]; 1 µg/mL (≈ 2.34 µM) under setting [6]. Further, the MIC under setting [7] was 2 µg/mL (≈ 4.68 µM); the MIC under setting [8] was found to be 4 µg/mL (≈ 9.36 µM); the MIC under setting [9] was determined as 2 µg/mL (≈ 4.68 µM); the MIC under setting [10] amounted to 16 µg/mL (≈ 37.4 µM); the MIC under setting [11] worked out at 2 µg/mL (≈ 4.68 µM); the MIC under setting [12] was 2 µg/mL (≈ 4.68 µM). Further, the MIC is, setting by setting: under setting [13], 2 µg/mL (≈ 4.68 µM); under setting [14], 2 µg/mL (≈ 4.68 µM); under setting [15], 4 µg/mL (≈ 9.36 µM); under setting [16], 4 µg/mL (≈ 9.36 µM); under setting [17], 2 µg/mL (≈ 4.68 µM); under setting [18], 2 µg/mL (≈ 4.68 µM).
For the molecule `CO/N=C(\C(=O)N[C@@H]1C(=O)N2C(C(=O)O)=C(COC(C)=O)CS[C@H]12)c1csc(N)n1` [Compound II], the MIC is, setting by setting: (read-out: Minimal Inhibitory Concentration, beta-lactamase negative, strain SSC 79-3, Table II) 0.5 µg/mL (≈ 1.1 µM); (read-out: Minimal Inhibitory Concentration, beta-lactamase negative, strain SSC 79-5, Table II) 1 µg/mL (≈ 2.2 µM); (read-out: Minimal Inhibitory Concentration, beta-lactamase negative, strain SSC 79-7, Table II) 0.5 µg/mL (≈ 1.1 µM); (read-out: Minimal Inhibitory Concentration, beta-lactamase negative, strain SSC 79-9, Table II) 0.5 µg/mL (≈ 1.1 µM); (read-out: Minimal Inhibitory Concentration, beta-lactamase negative, strain SSC 79-10, Table II) 0.5 µg/mL (≈ 1.1 µM); (read-out: Minimal Inhibitory Concentration, beta-lactamase negative, strain SSC 79-11, Table II) 0.5 µg/mL (≈ 1.1 µM). For the same molecule, the MIC reads like this: (read-out: Minimal Inhibitory Concentration, beta-lactamase negative, strain SSC 79-14, Table II) 2 µg/mL (≈ 4.39 µM); (read-out: Minimal Inhibitory Concentration, beta-lactamase negative, strain SSC 79-15, Table II) 2 µg/mL (≈ 4.39 µM); (read-out: Minimal Inhibitory Concentration, beta-lactamase negative, strain SSC 79-17, Table II) 1 µg/mL (≈ 2.2 µM); (read-out: Minimal Inhibitory Concentration, beta-lactamase positive, strain SSC 79-24, Table II) 16 µg/mL (≈ 35.1 µM); (read-out: Minimal Inhibitory Concentration, beta-lactamase positive, strain SSC 79-27, Table II) 1 µg/mL (≈ 2.2 µM); (read-out: Minimal Inhibitory Concentration, beta-lactamase positive, strain SSC 79-28, Table II) 1 µg/mL (≈ 2.2 µM). For the same molecule, the MIC by setting is: (read-out: Minimal Inhibitory Concentration, beta-lactamase positive, strain SSC 79-36, Table II) 1 µg/mL (≈ 2.2 µM); (read-out: Minimal Inhibitory Concentration, beta-lactamase positive, strain SSC 79-38, Table II) 1 µg/mL (≈ 2.2 µM); (read-out: Minimal Inhibitory Concentration, beta-lactamase positive, strain SSC 79-39, Table II) 1 µg/mL (≈ 2.2 µM); (read-out: Minimal Inhibitory Concentration, beta-lactamase positive, strain SSC 79-41, Table II) 2 µg/mL (≈ 4.39 µM); (read-out: Minimal Inhibitory Concentration, beta-lactamase positive, strain SSC 79-44, Table II) 1 µg/mL (≈ 2.2 µM); (read-out: Minimal Inhibitory Concentration, beta-lactamase positive, strain SSC 79-47, Table II) 1 µg/mL (≈ 2.2 µM).
For the molecule `CCN1CCN(C(=O)N[C@@H](C(=O)N[C@@H]2C(=O)N3C(C(=O)O)=C(CSc4nnnn4C)CS[C@H]23)c2ccc(O)cc2)C(=O)C1=O` [Compound VII, Cefaperazone], the MIC runs as follows: under setting [1], 0.5 µg/mL (≈ 0.774 µM); under setting [2], 2 µg/mL (≈ 3.1 µM); under setting [3], 0.5 µg/mL (≈ 0.774 µM); under setting [4], 0.5 µg/mL (≈ 0.774 µM); under setting [5], 0.5 µg/mL (≈ 0.774 µM); under setting [6], 0.25 µg/mL (≈ 0.387 µM). In addition, the MIC amounted to 2 µg/mL (≈ 3.1 µM) under setting [7]; 2 µg/mL (≈ 3.1 µM) under setting [8]; 1 µg/mL (≈ 1.55 µM) under setting [9]; 128 µg/mL (≈ 198 µM) under setting [10]; 1 µg/mL (≈ 1.55 µM) under setting [11]; 2 µg/mL (≈ 3.1 µM) under setting [12]. Moreover, the MIC turned out to be 2 µg/mL (≈ 3.1 µM) under setting [13]; 1 µg/mL (≈ 1.55 µM) under setting [14]; 2 µg/mL (≈ 3.1 µM) under setting [15]; 2 µg/mL (≈ 3.1 µM) under setting [16]; 1 µg/mL (≈ 1.55 µM) under setting [17]; 2 µg/mL (≈ 3.1 µM) under setting [18].
Consider `CO/N=C(\C(=O)N[C@@H]1C(=O)N2C(C(=O)O)=C(CSc3nnnn3C)CS[C@H]12)c1csc(N)n1` [Compound III, Cefmenoxime], for which the MIC by setting is: under setting [1], 1 µg/mL (≈ 1.95 µM); under setting [2], 4 µg/mL (≈ 7.82 µM); under setting [3], 1 µg/mL (≈ 1.95 µM); under setting [4], 2 µg/mL (≈ 3.91 µM); under setting [5], 1 µg/mL (≈ 1.95 µM); under setting [6], 1 µg/mL (≈ 1.95 µM). Moreover, the MIC under setting [7] was determined as 4 µg/mL (≈ 7.82 µM); the MIC under setting [8] came to 4 µg/mL (≈ 7.82 µM); the MIC under setting [9] was 2 µg/mL (≈ 3.91 µM); the MIC under setting [10] is 32 µg/mL (≈ 62.6 µM); the MIC under setting [11] is 2 µg/mL (≈ 3.91 µM); the MIC under setting [12] was determined as 2 µg/mL (≈ 3.91 µM). The MIC under setting [13] worked out at 2 µg/mL (≈ 3.91 µM); the MIC under setting [14] worked out at 2 µg/mL (≈ 3.91 µM); the MIC under setting [15] was determined as 4 µg/mL (≈ 7.82 µM); the MIC under setting [16] stood at 4 µg/mL (≈ 7.82 µM); the MIC under setting [17] was determined as 2 µg/mL (≈ 3.91 µM); the MIC under setting [18] is 2 µg/mL (≈ 3.91 µM).
On to `CO[C@@]1(NC(=O)C(C(=O)O)c2ccc(O)cc2)C(=O)N2C(C(=O)O)=C(CSc3nnnn3C)CO[C@@H]21` (stereo partly drawn) [Compound V, Moxalactam], for which the MIC by setting is: under setting [1], 2 µg/mL (≈ 3.84 µM); under setting [2], 8 µg/mL (≈ 15.4 µM); under setting [3], 2 µg/mL (≈ 3.84 µM); under setting [4], 2 µg/mL (≈ 3.84 µM); under setting [5], 2 µg/mL (≈ 3.84 µM); under setting [6], 2 µg/mL (≈ 3.84 µM). In addition, the MIC turned out to be 4 µg/mL (≈ 7.69 µM) under setting [7]; 8 µg/mL (≈ 15.4 µM) under setting [8]; 4 µg/mL (≈ 7.69 µM) under setting [9]; 32 µg/mL (≈ 61.5 µM) under setting [10]; 4 µg/mL (≈ 7.69 µM) under setting [11]; 4 µg/mL (≈ 7.69 µM) under setting [12]. Moreover, the MIC was determined as 4 µg/mL (≈ 7.69 µM) under setting [13]; 2 µg/mL (≈ 3.84 µM) under setting [14]; 4 µg/mL (≈ 7.69 µM) under setting [15]; 4 µg/mL (≈ 7.69 µM) under setting [16]; 2 µg/mL (≈ 3.84 µM) under setting [17]; 4 µg/mL (≈ 7.69 µM) under setting [18].
Regarding `CO/N=C(\C(=O)N[C@@H]1C(=O)N2C(C(=O)O)=CCS[C@H]12)c1csc(N)n1` [Compound IV, Ceftizoxime], the MIC is, setting by setting: under setting [1], 1 µg/mL (≈ 2.61 µM); under setting [2], 1 µg/mL (≈ 2.61 µM); under setting [3], 0.5 µg/mL (≈ 1.3 µM); under setting [4], 1 µg/mL (≈ 2.61 µM); under setting [5], 1 µg/mL (≈ 2.61 µM); under setting [6], 0.5 µg/mL (≈ 1.3 µM). Besides, the MIC under setting [7] worked out at 4 µg/mL (≈ 10.4 µM); the MIC under setting [8] stood at 1 µg/mL (≈ 2.61 µM); the MIC under setting [9] is 1 µg/mL (≈ 2.61 µM); the MIC under setting [10] is greater than 128 µg/mL; the MIC under setting [11] stood at 0.5 µg/mL (≈ 1.3 µM); the MIC under setting [12] was found to be 0.5 µg/mL (≈ 1.3 µM). In addition, the MIC under setting [13] was found to be 1 µg/mL (≈ 2.61 µM); the MIC under setting [14] stood at 0.5 µg/mL (≈ 1.3 µM); the MIC under setting [15] came to 4 µg/mL (≈ 10.4 µM); the MIC under setting [16] was found to be 1 µg/mL (≈ 2.61 µM); the MIC under setting [17] turned out to be 0.5 µg/mL (≈ 1.3 µM); the MIC under setting [18] turned out to be 1 µg/mL (≈ 2.61 µM).
